Experimental data taken from ChEMBL document CHEMBL1759968, “Synthesis and biological evaluation of unsaturated keto and exomethylene D-arabinopyranonucleoside analogs: novel 5-fluorouracil analogs that target thymidylate synthase” (Eur J Med Chem, 2011).
Activity calls are given as the source filed them. The calls are words filed in the database; no cut-off is given here.

Tests used:
HeLa [1] = test: Cytostatic activity against human HeLa cells in presence of 500 uM uracil; assay type: functional, cell-based
Coxsackievirus B4 [2] = test: Antiviral activity against Human coxsackievirus B4 infected in HeLa cells assessed as inhibition of virus-induced cytopathic effect; assay type: functional, organism-based
L1210 [3] = test: Cytostatic activity against mouse L1210 cells in presence of 20 uM thymidine; assay type: functional, cell-based
[4] = test system: Respiratory syncytial virus; test: Antiviral activity against Respiratory syncytial virus infected in HeLa cells assessed as inhibition of virus-induced cytopathic effect; assay type: functional, organism-based
Coxsackievirus B4 [5] = test: Antiviral activity against Human coxsackievirus B4 infected in Vero cells assessed as inhibition of virus-induced cytopathic effect; assay type: functional, organism-based
Human alphaherpesvirus 1 = test: Antiviral activity against Herpes simplex virus type-1 infected in HEL cells assessed as inhibition of virus-induced cytopathic effect; assay type: functional, organism-based
Sindbis virus = test: Antiviral activity against Sindbis virus infected in Vero cells assessed as inhibition of virus-induced cytopathic effect; assay type: functional, organism-based
Vaccinia virus = test: Antiviral activity against Vaccinia virus infected in HEL cells assessed as inhibition of virus-induced cytopathic effect; assay type: functional, organism-based; conditions: Orthopoxvirus vaccinia
FM3A = test: Cytostatic activity against mouse FM3A cells after 2 days by coulter counting analysis; assay type: functional, cell-based; conditions: 48 h
L1210 [6] = test: Cytostatic activity against mouse L1210 cells after 2 days by coulter counting analysis; assay type: functional, cell-based; conditions: L1210, 48 h
L1210 [7] = test: Cytostatic activity against mouse L1210 cells in presence of 20 uM 2'-deoxyuridine; assay type: functional, cell-based
L1210 [8] = test: Cytostatic activity against mouse L1210 cells in presence of 500 uM uracil; assay type: functional, cell-based
[9] = test system: Mammalian orthoreovirus 1; test: Antiviral activity against Reovirus 1 infected in Vero cells assessed as inhibition of virus-induced cytopathic effect; assay type: functional, organism-based
L1210 [10] = test: Cytostatic activity against mouse L1210 cells in presence of 500 uM uridine; assay type: functional, cell-based
HeLa [11] = test: Cytostatic activity against human HeLa cells in presence of 20 uM thymidine; assay type: functional, cell-based
Human alphaherpesvirus 2 = test: Antiviral activity against Herpes simplex virus type-2 infected in HEL cells assessed as inhibition of virus-induced cytopathic effect; assay type: functional, organism-based
[12] = test system: Vesicular stomatitis virus; test: Antiviral activity against Vesicular stomatitis virus infected in HEL cells assessed as inhibition of virus-induced cytopathic effect; assay type: functional, organism-based
[13] = test system: Vesicular stomatitis virus; test: Antiviral activity against Vesicular stomatitis virus infected in HeLa cells assessed as inhibition of virus-induced cytopathic effect; assay type: functional, organism-based
HeLa [14] = test: Cytostatic activity against human HeLa cells in presence of 20 uM 2'-deoxyuridine; assay type: functional, cell-based
Human respirovirus 3 = test: Antiviral activity against Human parainfluenza virus 3 infected in Vero cells assessed as inhibition of virus-induced cytopathic effect; assay type: functional, organism-based
HeLa [15] = test: Cytostatic activity against human HeLa cells in presence of 500 uM uridine; assay type: functional, cell-based
Punta Toro virus = test: Antiviral activity against Punta Toro virus infected in Vero cells assessed as inhibition of virus-induced cytopathic effect; assay type: functional, organism-based
CCRF-CEM = test: Cytostatic activity against human CEM cells after 3 days by coulter counting analysis; assay type: functional, cell-based; conditions: 72 h
HeLa [16] = test: Cytostatic activity against human HeLa cells after 3 days by coulter counting analysis; assay type: functional, cell-based; conditions: 72 h

SMILES	Activity (Coxsackievirus B4 [2])	Activity [4]	Activity (Coxsackievirus B4 [5])	Activity (Human alphaherpesvirus 1)	Activity (Sindbis virus)	Activity (Vaccinia virus)	IC50 (FM3A) [µM]	IC50 (L1210 [6]) [µM]	Activity [9]	Activity (Human alphaherpesvirus 2)	Activity [12]	Activity [13]	Activity (Human respirovirus 3)	Activity (Punta Toro virus)	IC50 (CCRF-CEM) [µM]	IC50 (HeLa [16]) [µM]	further results
O=c1[nH]c(=O)n([C@@H]2O[C@H](CO)[C@@H](O)[C@H]2O)cc1F [5-FLUOROURIDINE]	inactive	inactive	inactive	inactive	inactive	inactive	0.014	0.014	inactive	inactive	inactive	inactive	inactive	inactive	–	–	IC50 (HeLa [1]): 0.016 µM; IC50 (L1210 [3]): 1.2 µM; IC50 (L1210 [7]): 0.026 µM; IC50 (L1210 [8]): 0.0075 µM; IC50 (L1210 [10]): 0.72 µM; IC50 (HeLa [11]): 0.017 µM; IC50 (HeLa [14]): 0.022 µM; IC50 (HeLa [15]): 1.6 µM
C=C1C=CCO[C@@H]1n1cc(C)c(O)nc1=O	inactive	inactive	inactive	inactive	inactive	inactive	≥ 900	486	inactive	inactive	inactive	inactive	inactive	inactive	504	339	–
C=C1C=CCO[C@@H]1n1ccc(N)nc1=O	inactive	inactive	inactive	inactive	inactive	inactive	≥ 1800	1390	inactive	inactive	inactive	inactive	inactive	inactive	1550	990	–
C=C1[C@H](O)[C@H](O)CO[C@@H]1n1ccc(O)nc1=O	inactive	inactive	inactive	inactive	inactive	inactive	> 800	> 800	inactive	inactive	inactive	inactive	inactive	inactive	> 800	≥ 800	–
C=C1C=CCO[C@@H]1n1ccc(O)nc1=O	inactive	inactive	inactive	inactive	inactive	inactive	> 1000	549	inactive	inactive	inactive	inactive	inactive	inactive	450	760	–
Cc1cn([C@H]2OCC=CC2=O)c(=O)nc1O	inactive	inactive	inactive	inactive	inactive	inactive	77	34	inactive	inactive	inactive	inactive	inactive	inactive	104	34	–
C=C1C=CCO[C@@H]1n1ccc(NC(=O)c2ccccc2)nc1=O	inactive	inactive	inactive	inactive	inactive	inactive	379	368	inactive	inactive	inactive	inactive	inactive	inactive	432	296	–
O=C1C=CCO[C@@H]1n1cc(C(F)(F)F)c(O)nc1=O	inactive	inactive	inactive	inactive	inactive	inactive	46	23	inactive	inactive	inactive	inactive	inactive	inactive	39	34	–
O=C(Nc1ccn([C@H]2OCC=CC2=O)c(=O)n1)c1ccccc1	inactive	inactive	inactive	inactive	inactive	inactive	62	28	inactive	inactive	inactive	inactive	inactive	inactive	46	72	–
C=C1[C@H](O)[C@H](O)CO[C@@H]1n1cc(C)c(O)nc1=O	inactive	inactive	inactive	inactive	inactive	inactive	775	610	inactive	inactive	inactive	inactive	inactive	inactive	≥ 800	≥ 800	–
O=C1C=CCO[C@@H]1n1ccc(O)nc1=O	inactive	inactive	inactive	inactive	inactive	inactive	121	92	inactive	inactive	inactive	inactive	inactive	inactive	82	42	–
